{"source": "paper PMC10454728", "about": "“A Comparative Study on the Lysosomal Cation Channel TMEM175 Using Automated Whole-Cell Patch-Clamp, Lysosomal Patch-Clamp, and Solid Supported Membrane-Based Electrophysiology: Functional Characterization and High-Throughput Screening Assay Development” (International Journal of Molecular Sciences, 2023)", "key": {"TMEM175 [1]": {"target": "T1, TMEM175 (Homo sapiens, UniProt Q9BSA9)", "T1 sequence (Q9BSA9 1-504)": "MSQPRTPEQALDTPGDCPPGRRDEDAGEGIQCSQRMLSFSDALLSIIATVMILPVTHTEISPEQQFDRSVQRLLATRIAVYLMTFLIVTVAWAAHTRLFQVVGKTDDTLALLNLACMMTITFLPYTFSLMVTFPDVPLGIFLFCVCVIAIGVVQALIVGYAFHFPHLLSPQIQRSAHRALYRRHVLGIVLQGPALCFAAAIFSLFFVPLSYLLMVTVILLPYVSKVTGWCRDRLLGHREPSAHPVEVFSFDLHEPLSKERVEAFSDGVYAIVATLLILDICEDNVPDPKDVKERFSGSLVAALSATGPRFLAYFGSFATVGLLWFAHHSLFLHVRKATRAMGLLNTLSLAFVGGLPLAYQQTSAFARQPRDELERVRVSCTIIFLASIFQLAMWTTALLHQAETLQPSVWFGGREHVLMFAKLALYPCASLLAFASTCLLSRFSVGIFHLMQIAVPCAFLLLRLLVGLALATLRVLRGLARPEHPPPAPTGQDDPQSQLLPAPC", "experiment": "SSME H+ flux assay (pH jumps) on TMEM175 lysosomes (SURFE2R N1)", "assay_type": "biochemical", "conditions": "10 mM 4-AP", "description": "To further investigate the capability of TMEM175 to translocate protons using SSME, we performed H^+ concentration or pH jumps using the SURFE^2R N1. The non-activating solution was set to pH 7.6, defining both the lysosomal and cytosolic pH before the start of the experiment. By exchanging the non-activating for the activating solution, we acidified the cytosolic solution and stimulated H^+ influx through TMEM175 (Figure 5A).\nHowever, the application of pH jumps lead to significant artifact currents of positive magnitude, as observed with the control lysosomes (Figure 5C). These artifacts are a result of protons interacting with the lipid membranes and/or unknown H^+ leak pathways through the lysosomal membrane. To conclude pure TMEM175-related H^+ currents, we subtracted the artifact currents from the currents recorded with the TMEM175 sample. When plotting ΔpH against the artifact-corrected average TMEM175 net H^+ current, we obtain a close-to-linear correlation (Figure 5D).\nFor comparison with the I/c curve reported for K^+ (Figure 3E), we calculated the difference in H^+ concentration across the lysosomal membrane Δc = cH^out − cH^in, which correlates linearly with the passive H^+ flux J = PH+Δc according to Fick’s law.\nWe used H^+ concentration or pH jumps to measure H^+ flux through TMEM175. Non-activating solution was set to pH 7.6, while activating solution contained different pH values between pH 7.4 and pH 4.6; (B) Representative current traces induced by pH jumps on lysosomes overexpressing TMEM175. All current traces were recorded with the same sensor, starting from the lowest ΔpH. […] The remaining current mostly reflects the background (artifact) current after full block of TMEM175; (C) Representative current traces from the same experiment on control lysosomes. […] This represents the artifact current also underlying the currents recorded with the TMEM175 sample; (D) SEM and average, artifact-corrected, normalized peak currents from N = 4 sensors, reflecting the H^+ flux through TMEM175, solely driven by the pH gradient. […]"}, "TMEM175 [2]": {"target": "T1, TMEM175", "experiment": "Whole-cell automated patch-clamp (APC) Cs+ flux assay, SyncroPatch 384i, HEK293 overexpressing TMEM175", "assay_type": "cell-based", "conditions": "50 µM, at +100 mV, Figure 7F"}, "control HEK293 UT cells": {"system": "control HEK293 UT cells", "experiment": "Whole-cell APC off-target effects on control cells", "assay_type": "cell-based, human", "conditions": "50 µM", "method": "Figure 7 Whole-cell APC recordings on TMEM175: (A) Schematic representation of assay conditions in the Cs^+ flux assay. The ions known to permeate through TMEM175 in the external and internal solutions are indicated; (B) Voltage protocol and time points for the read-out of inward and outward currents; (C) The compound application protocol consists of the recording of the TMEM175 baseline current. […] Success rates were determined based on the QC criteria provided in the Methods section. […] We determined average values, AVGpos and AVGneg, and standard deviations, SDpos and SDneg, of the recorded currents. […] Datapoints were normalized to the TMEM175 baseline current before compound addition and then averaged across at least N = 5 cells. Error bars represent the SEM obtained from automated data analysis using DataControl384. […] The compound effects on control cells were between +10% and -40% compared to the control baseline current. […]. […] Therefore, off-target compound effects seem to be negligible in the APC assay."}}, "data": [{"smiles": "Nc1ccncc1", "note": "[4-AP, 4-aminopyridine]", "values": [{"measurement": "Block of H+ influx current", "setting": "TMEM175 [1]; ΔpH 3.0, pH 7.6 to 4.6", "value": "full block"}, {"measurement": "Effect on H+ efflux currents", "setting": "TMEM175 [1]; potency lower than for H+ influx", "value": "inhibited"}]}, {"smiles": "CCOC(=O)C1=C(N)Oc2ccc(Cl)cc2C1C(C#N)C(=O)OCC", "note": "(stereo not shown) [SC-79]", "values": [{"measurement": "Current of TMEM175 cells after enhancer, APC", "setting": "TMEM175 [2]", "value": "305 ± 39", "unit": "%"}]}, {"smiles": "[Cl-].[Cl-].[Zn+2]", "note": "[Zn, ZnCl2]", "values": [{"measurement": "Decrease of baseline current of control cells", "setting": "control HEK293 UT cells", "value": "30–40%"}]}]}
